Measured values from publication PMC6792352, “Limited Chemical Structural Diversity Found to Modulate Thyroid Hormone Receptor in the Tox21 Chemical Library” (Environmental Health Perspectives, 2019).
Counter-ions that a name gives are not always drawn.

Assay: in vitro
Settings: rat, gh3-tre-luc cells, AC50 (uM) modified / 1000

| Structure (SMILES) | CC50 at 24 h [µM] |
| --- | --- |
| COc1ccc(C=O)cc1 [4-Methoxybenzaldehyde] | > 90 |
| Nc1cc(Cl)c(-c2cc(Cl)c(N)cc2Cl)cc1Cl [2,2',5,5'-Tetrachlorobenzidine] | 13.7 |
| O=C1[C@H](CC[C@H](O)c2ccc(F)cc2)[C@@H](c2ccc(O)cc2)N1c1ccc(F)cc1 [Ezetimibe] | > 50 |
| CNC[C@@H]1CC[C@@H](N)[C@@H](O[C@H]2[C@H](O)[C@@H](O[C@H]3OC[C@](C)(O)[C@H](NC)[C@H]3O)[C@H](N)C[C@@H]2N)O1 [Micronomicin sulfate] | > 50 |
| O=C1CCCCC1 [Cyclohexanone] | > 100 |
| O=C(O)c1ccc2c(c1)nc(C(=O)NC1CCN(C3CC3)CC1)n2Cc1cc(-c2ccc(Cl)s2)on1 [AVE3247] | > 20 |
| C=C(C)C(N)=O [Methacrylamide] | > 90 |
| c1nc[nH]n1 [1,2,4-Triazole, sodium salt] | > 90 |
| CCN[C@@H](C)Cc1ccccc1 [(S)-(+)-N-Ethylamphetamine hydrochloride] | > 100 |
| CC(C)COC(=O)c1ccccc1O [Isobutyl salicylate] | > 90 |
| O=C(O)/C=C/C(O)c1ccc(Cl)cc1 (stereo not shown) [Sodium (2E)-4-(4-chlorophenyl)-4-hydroxybut-2-enoate hydrate] | > 50 |
| CN(c1nccc(=O)[nH]1)C1CCN(c2nc3ccccc3n2Cc2ccc(F)cc2)CC1 [Mizolastine] | > 50 |
| N#Cc1ccc(CC(=O)c2cccc(C(F)(F)F)c2)cc1 [4-{2-Oxo-2-[3-(trifluoromethyl)phenyl]ethyl}benzonitrile] | > 90 |
| O=C(O)c1cccc(C(=O)O)c1C(=O)O [1,2,3-Benzenetricarboxylic acid] | > 90 |
| O=[N+]([O-])C1(Br)COCOC1 [5-Bromo-5-nitro-1,3-dioxane] | 11.8 |
| CC(C)COC(=O)CC(C(=O)OCC(C)C)S(=O)(=O)O (stereo not shown) [Sodium 1,4-diisobutyl sulfosuccinate] | > 90 |
| Cc1cc2c(cc1C(F)(F)F)N(C(=O)Nc1ccc(Oc3cccnc3C)nc1)CC2 [SB243213A] | 69.4 |
| CN(C)CCOC(c1ccc(Cl)cc1)c1ccccn1 (stereo not shown) [Carbinoxamine maleate] | 23 |
| C=CC(=O)O [Acrylic acid] | > 50 |
| CC1=CC(=O)CC(C)(C)C1 [Isophorone] | > 90 |
| Nc1ccc2cc(S(=O)(=O)O)cc(O)c2c1N=Nc1ccccc1C(F)(F)F [Acid Red 337] | 89.3 |
| CN[C@@H]1[C@@H](O)[C@@H](O[C@@H]2[C@@H](O)[C@H](O[C@H]3O[C@H](CN)[C@@H](O)[C@H](O)[C@H]3O)[C@@H](N)C[C@H]2NC(=O)[C@@H](O)CN)OC[C@]1(C)O [Isepamicin sulfate] | > 50 |
| CCCCCCCCCCCC(=O)O [Dodecanoic acid] | > 90 |
| CC(C)OCC1CO1 (stereo not shown) [Isopropyl glycidyl ether] | > 90 |
| Nc1nc(O)c2ncn(COC(CO)CO)c2n1 [Ganciclovir] | > 20 |

| Structure (SMILES) | CC50 at 24 h [µM] |
| --- | --- |
| COCCOCCOCCO [2-[2-(2-Methoxyethoxy)ethoxy]ethanol] | > 90 |
| O=[N+]([O-])c1cc(Cl)c(Cl)c(Cl)c1Cl [2,3,4,5-Tetrachloronitrobenzene] | 89.5 |
| CC1(C)C2=CCCC(C)(C)[C@]23CC[C@H]1C3 [(-)-Isolongifolene] | > 90 |
| Cc1cc(O)ccc1N [4-Amino-m-cresol] | 29.9 |
| O=C(COc1ccc(Cl)cc1)N1CCN(Cc2ccc3c(c2)OCO3)CC1 [Fipexide hydrochloride] | 66.7 |
| COC(=O)[C@]1(C)CCC[C@@]2(C)[C@H]1CC=C1C=C(C(C)C)CC[C@@H]12 [Methyl abietate] | 42.6 |
| CC(=O)NCCCCCC(=O)O [Acexamic acid] | > 50 |
| C=C(c1ccc(C(=O)O)cc1)c1cc2c(cc1C)C(C)(C)CCC2(C)C [Bexarotene] | 16.1 |
| CCSC(=O)N(CC(C)C)CC(C)C [Butylate] | > 90 |
| CC[C@H]1C[C@H]2[C@@H]3CCC4=CC(=O)CC[C@@H]4[C@H]3CC[C@]2(C)[C@H]1O [Oxendolone] | > 50 |
| Cn1nnc2c(C(N)=O)ncn2c1=O [Temozolomide] | > 50 |
| CCN(CC)C(C)C(=O)c1ccccc1 (stereo not shown) [Diethylpropion hydrochloride] | > 50 |
| CC1CCC(=O)C1=O (stereo not shown) [3-Methyl-1,2-cyclopentanedione] | > 100 |
| OCc1ccccn1 [Piconol] | > 50 |
| Cc1ccc2c(c1)CCCN2 [6-Methyl-1,2,3,4-tetrahydroquinoline] | > 90 |
| COc1nc(C)nc(NC(=O)NS(=O)(=O)c2ccccc2OCCCl)n1 [Triasulfuron] | > 90 |
| FCOC(C(F)(F)F)C(F)(F)F [Sevoflurane] | > 50 |
| COC(Cc1ccccc1)OC [(2,2-Dimethoxyethyl)benzene] | > 90 |
| C=C(C)C(=O)OCCOCC [2-Ethoxyethyl methacrylate] | > 90 |
| CC(C)(CO)[N+](=O)[O-] [2-Methyl-2-nitro-1-propanol] | > 90 |
| C[N+]1(CCF)[C@@H]2CC[C@H]1CC(OC(=O)C(O)(c1ccccc1)c1ccccc1)C2 (stereo partly shown) [Flutropium bromide] | > 50 |
| Cc1cc(C)c(N=Nc2c(O)c(S(=O)(=O)O)cc3cc(S(=O)(=O)O)ccc23)cc1C [Ponceau 3R] | > 6 |
| CC(=O)OC[C@H]1O[C@@H](n2ncc(=O)[nH]c2=O)[C@H](OC(C)=O)[C@@H]1OC(C)=O [6-Azaribine] | > 50 |
| OC(c1ccc(Cl)cc1)(c1ccc(Cl)cc1)C(Cl)(Cl)Cl [Dicofol] | 79.5 |
| O=C(O)c1ccc(CO)o1 [5-(Hydroxymethyl)-2-furoic acid] | > 90 |

| Structure (SMILES) | CC50 at 24 h [µM] |
| --- | --- |
| O=C(O)Cc1ccc(OCCNC[C@H](O)c2ccccc2)cc1 [ZD 2079] | > 50 |
| Cc1ccc(O)c(C(=O)c2ccccc2)c1 [2-Hydroxy-5-methylbenzophenone] | > 90 |
| CCN(CC)CCOC(=O)C(c1ccccc1)c1ccccc1 [Adiphenine hydrochloride] | 43.3 |
| CCC=CCCOC(=O)c1ccccc1O (stereo in doubt) [(3Z)-Hex-3-en-1-yl salicylate] | > 90 |
| CCC(C)c1ccccc1O (stereo not shown) [2-(Butan-2-yl)phenol] | > 90 |
| CCc1cc(SCc2sc(-c3ccc(C(F)(F)F)cc3)nc2CN2CCN(c3ccc(OC)cc3)CC2)ccc1OCC(=O)O [PharmaGSID_47315] | 22.4 |
| Cc1ccccc1NC(=N)NC(=N)N [1-(o-Tolyl)biguanide] | > 90 |
| OCc1cccnc1 [Nicotinyl alcohol] | > 50 |
| COc1nc(C)nc(Cl)c1N=C1NCCN1 [Moxonidine] | > 20 |
| O=S1(=O)OC(c2cc(Br)c(O)c(Br)c2)(c2cc(Br)c(O)c(Br)c2)c2ccccc21 [Bromophenol blue] | 63.9 |
| CC1C(C)(C)C2=C(C(=O)CCC2)C1(C)C (stereo not shown) [Dihydro-1,1,2,3,3-pentamethyl-4(5H)-indanone] | > 90 |
| CCOc1ccccc1C(N)=O [2-Ethoxybenzamide] | > 90 |
| COc1ccc(/C=C/C(=O)O)cc1 [4-Methoxy-(2E)-cinnamic acid] | > 50 |
| CC(C)(C)c1cc(/C=C2\SC(N)=NC2=O)cc(C(C)(C)C)c1O [Darbufelone mesylate] | 23.6 |
| Nc1ccc(Oc2ccc(Cl)cc2)cc1 [4-Chloro-4'-aminodiphenyl ether] | > 90 |
| CC(=O)OCC1=C(C(=O)O)N2C(=O)[C@@H](N)[C@H]2SC1 [7-Aminocephalosporanic acid] | > 20 |
| COCCO [2-Methoxyethanol] | > 90 |
| CCN(C)C(=O)Oc1cccc([C@H](C)N(C)C)c1 [Rivastigmine tartrate] | > 50 |
| C/C=C1/C(=O)C[C@H]2[C@@H]3CCC4=CC(=O)CC[C@]4(C)[C@H]3CC[C@]12C [Guggulsterone E] | > 90 |
| CC(C)COC(=O)c1ccc(O)cc1 [Isobutylparaben] | > 90 |
| CC(C)CCCCCCCOP(=O)(Oc1ccccc1)Oc1ccccc1 [Isodecyl diphenyl phosphate] | 27.3 |
| O=Nc1ccc(O)cc1 [4-Nitrosophenol] | > 90 |
| CC(C)CCCCCCOC(=O)c1ccc(C(=O)OCCCCCCC(C)C)c(C(=O)OCCCCCCC(C)C)c1 [Triisononyl trimellitate] | > 90 |
| O=C(CBr)c1ccc(O)cc1 [2-Bromo-4-hydroxyacetophenone] | > 90 |

Same assay, conditions: rat, gh3-tre-luc cells, AC50 (uM) modified / 1000, Tox21_110001=Tox21_110815; viability, 1 nM T3 present, 24 h

| Structure (SMILES) | CC50 at 24 h [µM] |
| --- | --- |
| COc1ccc2c(c1OC)C(=O)O[C@H]2[C@@H]1c2cc3c(cc2CCN1C)OCO3 [(1S,9R)-beta-Hydrastine] | > 50 |

Same assay, conditions: rat, gh3-tre-luc cells, AC50 (uM) modified / 1000, Tox21_110001=Tox21_112890; viability, 1 nM T3 present, 24 h

| Structure (SMILES) | CC50 at 24 h [µM] |
| --- | --- |
| CN(C)CCc1c[nH]c2ccc(O)cc12 [Bufotenine] | > 90 |

Same assay, conditions: rat, gh3-tre-luc cells, AC50 (uM) modified / 1000, Tox21_110001=Tox21_113138; viability, 1 nM T3 present, 24 h

| Structure (SMILES) | CC50 at 24 h [µM] |
| --- | --- |
| Cc1ccc2c(c1)[C@]13CCCC[C@@H]1[C@H](C2)N(C)CC3 [Dimemorfan phosphate] | > 50 |

Same assay, conditions: rat, gh3-tre-luc cells, AC50 (uM) modified / 1000, Tox21_110001=Tox21_201562; viability, 1 nM T3 present, 24 h

| Structure (SMILES) | CC50 at 24 h [µM] |
| --- | --- |
| CNC(=O)Oc1cccc2c1OC(C)(C)O2 [Bendiocarb] | > 90 |

Same assay, conditions: rat, gh3-tre-luc cells, AC50 (uM) modified / 1000, Tox21_110001=Tox21_201641; viability, 1 nM T3 present, 24 h

| Structure (SMILES) | CC50 at 24 h [µM] |
| --- | --- |
| COP(=O)(OC)OC(Br)C(Cl)(Cl)Br (stereo not shown) [Naled] | 48.7 |

Same assay, conditions: rat, gh3-tre-luc cells, AC50 (uM) modified / 1000, Tox21_110001=Tox21_300043; viability, 1 nM T3 present, 24 h

| Structure (SMILES) | CC50 at 24 h [µM] |
| --- | --- |
| OCCCl [2-Chloroethanol] | > 90 |

Same assay, conditions: rat, gh3-tre-luc cells, AC50 (uM) modified / 1000, Tox21_110001=Tox21_300845; viability, 1 nM T3 present, 24 h

| Structure (SMILES) | CC50 at 24 h [µM] |
| --- | --- |
| COP(=O)(OC)OC(Br)C(Cl)(Cl)Br (stereo not shown) [Naled] | 49.1 |

Same assay, conditions: rat, gh3-tre-luc cells, AC50 (uM) modified / 1000, Tox21_110001=Tox21_300994; viability, 1 nM T3 present, 24 h

| Structure (SMILES) | CC50 at 24 h [µM] |
| --- | --- |
| CCOC(=O)C(Cl)Cc1cc(-n2nc(C)n(C(F)F)c2=O)c(F)cc1Cl (stereo not shown) [Carfentrazone-ethyl] | > 90 |
